This is an account of results in patent US20100292266A1, “Oxazolyl Piperidine Modulators of Fatty Acid Amide Hydrolase” (priority 2006, published 2010).

One assay concerns the target T1, Rat FAAH (Rattus norvegicus, UniProt P97612).
T1 construct: expressed in transfected cells
T1 sequence (P97612 1-579): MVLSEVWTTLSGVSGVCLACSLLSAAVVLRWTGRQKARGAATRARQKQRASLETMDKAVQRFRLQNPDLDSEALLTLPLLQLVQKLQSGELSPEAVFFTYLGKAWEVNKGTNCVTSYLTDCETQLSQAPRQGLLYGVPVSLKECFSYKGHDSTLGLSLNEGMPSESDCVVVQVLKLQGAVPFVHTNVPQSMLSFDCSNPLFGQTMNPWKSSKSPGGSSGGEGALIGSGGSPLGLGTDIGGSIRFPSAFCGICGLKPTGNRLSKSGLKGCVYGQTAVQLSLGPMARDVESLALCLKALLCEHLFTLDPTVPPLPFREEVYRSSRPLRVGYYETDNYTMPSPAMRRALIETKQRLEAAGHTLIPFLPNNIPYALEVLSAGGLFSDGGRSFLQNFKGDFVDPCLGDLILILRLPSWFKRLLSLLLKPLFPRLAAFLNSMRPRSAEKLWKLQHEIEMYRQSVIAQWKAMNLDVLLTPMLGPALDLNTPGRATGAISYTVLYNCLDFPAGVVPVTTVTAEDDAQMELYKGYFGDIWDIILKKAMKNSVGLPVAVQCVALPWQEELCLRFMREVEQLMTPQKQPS
The experiment in a line: Assay Method 2: FAAH assay, 3H-anandamide hydrolysis in cell homogenate. The conditions noted are these: transfected SK-N-MC cell homogenate, 80 nM 3H-AEA, 1 h rt, > = solubility limit or highest concentration tested. Format: biochemical. The essentials: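 Homogenate of SK-N-MC cells stably transfected with rat FAAH cDNA (G418-selected clones) incubated with compound and 80 nM final [3H]-anandamide for 1 h. Released [3H]-ethanolamine separated on activated charcoal filters by centrifugation and counted by scintillation. ">" values mark solubility limit or top concentration tested.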

The target in another assay is T2, FAAH (Homo sapiens, UniProt O00519).
T2 sequence (O00519 1-579): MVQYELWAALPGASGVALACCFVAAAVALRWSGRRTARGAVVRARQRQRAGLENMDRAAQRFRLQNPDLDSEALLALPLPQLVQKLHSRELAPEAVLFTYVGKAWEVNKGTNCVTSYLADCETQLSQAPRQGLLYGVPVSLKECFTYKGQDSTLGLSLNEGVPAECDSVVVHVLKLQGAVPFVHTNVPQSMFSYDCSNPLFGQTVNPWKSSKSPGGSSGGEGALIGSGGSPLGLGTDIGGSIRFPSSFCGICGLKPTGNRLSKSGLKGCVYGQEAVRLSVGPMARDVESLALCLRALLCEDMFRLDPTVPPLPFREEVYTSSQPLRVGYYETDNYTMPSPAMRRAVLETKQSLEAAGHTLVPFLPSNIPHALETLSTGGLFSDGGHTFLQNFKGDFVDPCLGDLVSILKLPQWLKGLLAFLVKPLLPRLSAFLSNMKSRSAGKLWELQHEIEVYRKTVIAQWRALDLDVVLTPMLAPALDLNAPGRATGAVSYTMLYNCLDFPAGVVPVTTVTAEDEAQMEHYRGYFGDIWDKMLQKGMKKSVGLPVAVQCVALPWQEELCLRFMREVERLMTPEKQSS
The experiment in a line: Assay Method 1: FAAH assay, 3H-anandamide hydrolysis in cell homogenate. The assay is classed as biochemical. Details: expressed in transfected cells. The settings on record: T84 or transfected SK-N-MC cell homogenate, 80 nM 3H-AEA, 1 h rt, > = solubility limit or highest concentration tested. The essentials: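 Homogenate of SK-N-MC cells stably transfected with human FAAH, incubated with compound and 80 nM final ³H-anandamide for 1 h at rt. Released ³H-ethanolamine separated from substrate on activated charcoal and counted by scintillation. ">" values reflect solubility limit or top concentration tested.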

One may read the IC50 as the concentration that inhibits the measured activity by half. On to `O=C(c1ncco1)C1CCN(Cc2cccc(OC(F)(F)F)c2)CC1` [Example 37, Oxazol-2-yl-[1-(3-trifluoromethoxy-benzyl)-piperidin-4-yl]-methanone], for which the IC50 against Rat FAAH worked out at 0.04 µM; at FAAH it was 0.025 µM.

For `O=C(c1ncco1)C1CCN(Cc2cccc(C(F)(F)F)c2)CC1` [Example 18, Oxazol-2-yl-[1-(3-trifluoromethyl-benzyl)-piperidin-4-yl]-methanone], the concentration for half-maximal inhibition (IC50) against Rat FAAH was determined as 0.096 µM; at FAAH, 0.051 µM.

For `O=C(c1ncco1)C1CCN(Cc2ccccc2Cl)CC1` [Example 33, [1-(2-Chloro-benzyl)-piperidin-4-yl]-oxazol-2-yl-methanone], the values for the half-maximal inhibitory concentration (IC50) against Rat FAAH and against FAAH were 0.89 µM and 0.156 µM, respectively.

Take `O=C(c1ncco1)C1CCN(Cc2ccc(Br)cc2)CC1` [Example 51, [1-(4-Bromo-benzyl)-piperidin-4-yl]-oxazol-2-yl-methanone]: the results for the 50% inhibitory concentration (IC50) against Rat FAAH and on FAAH were 0.033 µM and 0.012 µM, respectively.

As to `O=C(c1ncco1)C1CCN(Cc2ccc(C(F)(F)F)cc2)CC1` [Example 19], the 50% inhibitory concentration (IC50) at Rat FAAH was found to be 0.015 µM; against FAAH, 0.01 µM.

As for `O=C(c1ncco1)C1CCN(Cc2cc3ccc(Cl)cc3nc2Cl)CC1` [Example 70, [1-(2,7-Dichloro-quinolin-3-ylmethyl)-piperidin-4-yl]-oxazol-2-yl-methanone], the half-inhibitory concentration (IC50) against Rat FAAH was 0.29 µM; at FAAH, 0.5 µM.

Turning to `COc1ccc2cc(CN3CCC(C(=O)c4ncco4)CC3)ccc2c1` [Example 46, [1-(6-Methoxy-naphthalen-2-ylmethyl)-piperidin-4-yl]-oxazol-2-yl-methanone], the IC50 against Rat FAAH was 0.219 µM; against FAAH it was 0.26 µM.

With `O=C(c1ncco1)C1CCN(Cc2ccccc2Br)CC1` [Example 53, [1-(2-Bromo-benzyl)-piperidin-4-yl]-oxazol-2-yl-methanone], the half-maximal inhibitory concentration (IC50) came to 0.32 µM at Rat FAAH and 0.085 µM at FAAH.

For the compound `Cc1ccc(CN2CCC(C(=O)c3ncco3)CC2)cc1` [Example 64, [1-(4-Methyl-benzyl)-piperidin-4-yl]-oxazol-2-yl-methanone], the half-inhibitory concentration (IC50) at Rat FAAH worked out at 0.484 µM; at FAAH it was 0.112 µM.

Take `CC(C)Oc1ccc(CN2CCC(C(=O)c3ncco3)CC2)cc1` [Example 23, [1-(4-Isopropoxy-benzyl)-piperidin-4-yl]-oxazol-2-yl-methanone]: the figures for the IC50 against Rat FAAH and against FAAH were more than 10 µM and 5 µM, respectively.

Regarding `COc1ccc(CN2CCC(C(=O)c3ncco3)CC2)cn1` [Example 81, [1-(6-Methoxy-pyridin-3-ylmethyl)-piperidin-4-yl]-oxazol-2-yl-methanone], the half-inhibitory concentration (IC50) amounted to 1.7 µM against Rat FAAH and 0.315 µM against FAAH.

Turning to `O=C(c1ncco1)C1CCN(Cc2ccc3cc[nH]c3c2)CC1` [Example 45, [1-(1H-Indol-6-ylmethyl)-piperidin-4-yl]-oxazol-2-yl-methanone], the IC50 is 1.6 µM against Rat FAAH and 0.212 µM on FAAH.

For `COc1ccc(C(=O)N2CCC(C(=O)c3ncco3)CC2)cc1` [Example 9, [1-(4-Methoxy-benzoyl)-piperidin-4-yl]-oxazol-2-yl-methanone], the IC50 was more than 10 µM at Rat FAAH and 7 µM on FAAH.

On to `O=C(c1ncco1)C1CCN(Cc2cccc(F)c2)CC1` [Example 31, [1-(3-Fluoro-benzyl)-piperidin-4-yl]-oxazol-2-yl-methanone], for which the 50% inhibitory concentration (IC50) on Rat FAAH came out at 1.4 µM; against FAAH, 0.303 µM.

Take `O=C(c1ncco1)C1CCN(Cc2ccc3c(c2)OC(F)(F)O3)CC1` [Example 71, [1-(2,2-Difluoro-benzo[1,3]dioxol-5-ylmethyl)-piperidin-4-yl]-oxazol-2-yl-methanone]: the 50% inhibitory concentration (IC50) was determined as 0.024 µM against Rat FAAH and 0.027 µM on FAAH.

`O=C(c1ncco1)C1CCN(Cc2cc3cc4c(cc3nc2Cl)OCO4)CC1` [Example 67, [1-(6-Chloro-[1,3]dioxolo[4,5-g]quinolin-7-ylmethyl)-piperidin-4-yl]-oxazol-2-yl-methanone]: the IC50 at Rat FAAH is more than 10 µM; on FAAH, 0.745 µM.

Turning to `O=C(c1ncco1)C1CCN(Cc2ccc(OC(F)(F)F)cc2)CC1` [Example 36, Oxazol-2-yl-[1-(4-trifluoromethoxy-benzyl)-piperidin-4-yl]-methanone], the results for the IC50 on Rat FAAH and on FAAH were 0.04 µM and 0.025 µM, respectively.

Take `COc1cccc(CN2CCC(C(=O)c3ncco3)CC2)c1` [Example 62, [1-(3-Methoxy-benzyl)-piperidin-4-yl]-oxazol-2-yl-methanone]: the IC50 was 1.3 µM at Rat FAAH and 0.244 µM against FAAH.

With `O=C(c1ncco1)C1CCN(Cc2nc3ccccc3cc2Cl)CC1` [Example 80, [1-(3-Chloro-quinolin-2-ylmethyl)-piperidin-4-yl]-oxazol-2-yl-methanone], the IC50 at Rat FAAH turned out to be 0.07 µM; against FAAH it was 0.016 µM.

On to `O=C(c1ncco1)C1CCN(Cc2ccc3c(c2)OCO3)CC1` [Example 15, (1-Benzo[1,3]dioxol-5-ylmethyl-piperidin-4-yl)-oxazol-2-yl-methanone], for which the IC50 on Rat FAAH was 0.582 µM; at FAAH, 0.113 µM.

As to `O=C(c1ncco1)C1CCN(Cc2cc3ccccc3o2)CC1` [Example 55, (1-Benzofuran-2-ylmethyl-piperidin-4-yl)-oxazol-2-yl-methanone], the IC50 is 0.105 µM against Rat FAAH and 0.012 µM on FAAH.

`Cc1cccc(CN2CCC(C(=O)c3ncco3)CC2)n1` [Example 83, [1-(6-Methyl-pyridin-2-ylmethyl)-piperidin-4-yl]-oxazol-2-yl-methanone]: the concentration for half-maximal inhibition (IC50) on Rat FAAH turned out to be 3 µM; against FAAH it was 0.64 µM.

In the case of `O=C(c1ncco1)C1CCN(Cc2cnc3ccccc3c2)CC1` [Example 85, Oxazol-2-yl-(1-quinolin-3-ylmethyl-piperidin-4-yl)-methanone], the half-inhibitory concentration (IC50) amounted to 0.043 µM against Rat FAAH and 0.018 µM on FAAH.

On to `O=C(c1ncco1)C1CCN(C(=O)c2ccc3ccccc3c2)CC1` [Example 10, [1-(Naphthalene-2-carbonyl)-piperidin-4-yl]-oxazol-2-yl-methanone], for which the 50% inhibitory concentration (IC50) against Rat FAAH was determined as 0.35 µM; at FAAH, 0.028 µM.

Consider `O=C(c1ncco1)C1CCN(Cc2ccc3ccc(Cl)cc3n2)CC1` [Example 76, [1-(7-Chloro-quinolin-2-ylmethyl)-piperidin-4-yl]-oxazol-2-yl-methanone], for which the concentration for half-maximal inhibition (IC50) at Rat FAAH was 0.008 µM; against FAAH, 0.003 µM.

As for `O=C(c1ncco1)C1CCN(C(=O)CCc2ccccc2)CC1` [Example 14, 1-[4-(Oxazole-2-carbonyl)-piperidin-1-yl]-3-phenyl-propan-1-one], the IC50 against Rat FAAH worked out at 9 µM; against FAAH, 1.6 µM.

With `O=C(c1ncco1)C1CCN(Cc2cccc(Cl)c2)CC1` [Example 34, [1-(3-Chloro-benzyl)-piperidin-4-yl]-oxazol-2-yl-methanone], the half-maximal inhibitory concentration (IC50) is 0.3 µM against Rat FAAH and 0.078 µM on FAAH.

`Cc1ccccc1CN1CCC(C(=O)c2ncco2)CC1` [Example 66, [1-(2-Methyl-benzyl)-piperidin-4-yl]-oxazol-2-yl-methanone]: the IC50 amounted to 0.6 µM at Rat FAAH and 0.175 µM on FAAH.

Turning to `Cn1ccc2ccc(CN3CCC(C(=O)c4ncco4)CC3)cc21` [Example 40, [1-(1-Methyl-1H-indol-6-ylmethyl)-piperidin-4-yl]-oxazol-2-yl-methanone], the IC50 on Rat FAAH stood at 0.385 µM; against FAAH, 0.094 µM.

As for `O=C(c1ncco1)C1CCN(Cc2ccc3[nH]ccc3c2)CC1` [Example 42], the results for the IC50 on Rat FAAH and at FAAH were more than 10 µM and 0.519 µM, respectively.

For the compound `O=C(c1ncco1)C1CCN(Cc2ccc3cc(Cl)ccc3n2)CC1` [Example 77, [1-(6-Chloro-quinolin-2-ylmethyl)-piperidin-4-yl]-oxazol-2-yl-methanone], the concentration for half-maximal inhibition (IC50) against Rat FAAH came to 0.022 µM; against FAAH, 0.007 µM.
